Assay results as given in BindingDB's records for doi:10.1111/j.1747-0285.2009.00857.x (Istituto Di Biostrutture E Bioimmagini-Cnr, 2009).

Legend:
Test in all cases: Inhibition Assay
Conditions in all cases: pH 7.5; 20 °C
[1] = target: Carbonic anhydrase 7 (Homo sapiens, UniProt P43166)
Description: (§1) Inhibition assay using carbonic anhydrases with an SX.18MV-R, a stopped-flow instrument from Applied Photophysics was used for assaying the CA catalyzed CO2 hydration activity.

[2] = target: Carbonic anhydrase 12 (Homo sapiens, UniProt O43570)
Description: as §1

[3] = target: Carbonic anhydrase 1 (Homo sapiens, UniProt P00915)
Description: as §1

[4] = target: Carbonic anhydrase 3 (Homo sapiens, UniProt P07451)
Description: as §1

[5] = target: Carbonic anhydrase 4 (Homo sapiens, UniProt P22748)
Description: as §1

[6] = target: Carbonic anhydrase 14 (Homo sapiens, UniProt Q9ULX7)
Description: as §1

[7] = target: Carbonic anhydrase 13 (Homo sapiens, UniProt Q8N1Q1)
Description: as §1

[8] = target: Carbonic anhydrase 5B, mitochondrial (Homo sapiens, UniProt Q9Y2D0)
Description: as §1

[9] = target: Carbonic anhydrase 5A, mitochondrial (Homo sapiens, UniProt P35218)
Description: as §1

[10] = target: Carbonic anhydrase 6 (Homo sapiens, UniProt P23280)
Description: as §1

[11] = target: Carbonic anhydrase 2 (Homo sapiens, UniProt P00918)
Description: as §1

Chain of Carbonic anhydrase 1 (P00915 whole entry): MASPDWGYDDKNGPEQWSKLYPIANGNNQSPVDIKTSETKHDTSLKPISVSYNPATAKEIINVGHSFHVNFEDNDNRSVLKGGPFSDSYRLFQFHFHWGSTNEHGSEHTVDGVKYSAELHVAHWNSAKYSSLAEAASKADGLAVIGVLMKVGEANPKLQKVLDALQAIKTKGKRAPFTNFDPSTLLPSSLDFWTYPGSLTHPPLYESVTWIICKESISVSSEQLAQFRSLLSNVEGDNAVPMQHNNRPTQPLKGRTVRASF
Chain of Carbonic anhydrase 3 (P07451 whole entry): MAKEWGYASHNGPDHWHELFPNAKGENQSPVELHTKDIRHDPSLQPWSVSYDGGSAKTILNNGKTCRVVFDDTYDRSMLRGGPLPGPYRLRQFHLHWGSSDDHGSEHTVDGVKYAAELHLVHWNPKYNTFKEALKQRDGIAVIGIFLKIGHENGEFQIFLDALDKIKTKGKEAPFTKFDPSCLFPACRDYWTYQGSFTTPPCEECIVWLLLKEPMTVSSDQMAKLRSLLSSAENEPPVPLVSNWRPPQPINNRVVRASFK
Chain of Carbonic anhydrase 5A, mitochondrial (P35218 whole entry): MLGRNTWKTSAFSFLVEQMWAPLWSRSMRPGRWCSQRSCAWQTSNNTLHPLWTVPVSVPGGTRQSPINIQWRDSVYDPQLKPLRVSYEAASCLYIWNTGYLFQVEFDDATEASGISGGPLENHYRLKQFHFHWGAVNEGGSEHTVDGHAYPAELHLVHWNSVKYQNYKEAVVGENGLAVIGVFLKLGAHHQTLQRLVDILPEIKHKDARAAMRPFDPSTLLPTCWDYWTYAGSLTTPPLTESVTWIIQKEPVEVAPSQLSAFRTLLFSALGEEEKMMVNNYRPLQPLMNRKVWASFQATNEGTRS
Chain of Carbonic anhydrase 4 (P22748 whole entry): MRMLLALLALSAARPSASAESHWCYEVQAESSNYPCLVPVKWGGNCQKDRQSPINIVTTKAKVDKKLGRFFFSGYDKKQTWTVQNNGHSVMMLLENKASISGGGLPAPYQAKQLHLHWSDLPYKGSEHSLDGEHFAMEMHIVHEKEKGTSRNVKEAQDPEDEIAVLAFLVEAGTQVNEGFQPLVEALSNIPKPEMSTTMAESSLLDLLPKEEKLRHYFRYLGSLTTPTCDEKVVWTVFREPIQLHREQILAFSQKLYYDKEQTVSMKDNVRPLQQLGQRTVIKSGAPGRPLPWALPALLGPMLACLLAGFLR
Chain of Carbonic anhydrase 5B, mitochondrial (Q9Y2D0 whole entry): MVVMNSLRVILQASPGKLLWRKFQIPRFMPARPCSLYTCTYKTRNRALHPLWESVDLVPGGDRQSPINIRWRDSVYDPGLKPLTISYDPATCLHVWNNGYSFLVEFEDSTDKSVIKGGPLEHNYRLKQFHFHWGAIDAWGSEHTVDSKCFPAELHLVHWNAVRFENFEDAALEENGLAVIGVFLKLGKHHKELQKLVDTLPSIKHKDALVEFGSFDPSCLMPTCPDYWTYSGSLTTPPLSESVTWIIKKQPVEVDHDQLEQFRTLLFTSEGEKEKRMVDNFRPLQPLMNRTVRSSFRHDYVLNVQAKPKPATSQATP
Chain of Carbonic anhydrase 13 (Q8N1Q1 whole entry): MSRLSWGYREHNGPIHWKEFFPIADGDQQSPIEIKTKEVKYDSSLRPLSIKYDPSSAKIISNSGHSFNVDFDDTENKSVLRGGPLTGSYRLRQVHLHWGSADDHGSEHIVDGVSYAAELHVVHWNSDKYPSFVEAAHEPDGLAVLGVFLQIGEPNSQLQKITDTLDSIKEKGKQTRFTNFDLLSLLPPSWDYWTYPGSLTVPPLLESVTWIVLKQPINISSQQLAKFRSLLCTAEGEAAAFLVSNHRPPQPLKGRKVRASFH
Chain of Carbonic anhydrase 12 (O43570 whole entry): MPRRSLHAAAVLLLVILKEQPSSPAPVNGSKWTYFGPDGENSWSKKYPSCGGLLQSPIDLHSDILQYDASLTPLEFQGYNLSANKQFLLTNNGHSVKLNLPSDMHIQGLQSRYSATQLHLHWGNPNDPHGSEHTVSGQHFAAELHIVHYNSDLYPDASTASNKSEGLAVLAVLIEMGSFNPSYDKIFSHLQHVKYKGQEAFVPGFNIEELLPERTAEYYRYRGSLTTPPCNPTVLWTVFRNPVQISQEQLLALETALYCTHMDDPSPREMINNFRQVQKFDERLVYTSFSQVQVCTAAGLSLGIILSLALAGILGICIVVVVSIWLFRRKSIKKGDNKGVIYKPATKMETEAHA
Chain of Carbonic anhydrase 14 (Q9ULX7 whole entry): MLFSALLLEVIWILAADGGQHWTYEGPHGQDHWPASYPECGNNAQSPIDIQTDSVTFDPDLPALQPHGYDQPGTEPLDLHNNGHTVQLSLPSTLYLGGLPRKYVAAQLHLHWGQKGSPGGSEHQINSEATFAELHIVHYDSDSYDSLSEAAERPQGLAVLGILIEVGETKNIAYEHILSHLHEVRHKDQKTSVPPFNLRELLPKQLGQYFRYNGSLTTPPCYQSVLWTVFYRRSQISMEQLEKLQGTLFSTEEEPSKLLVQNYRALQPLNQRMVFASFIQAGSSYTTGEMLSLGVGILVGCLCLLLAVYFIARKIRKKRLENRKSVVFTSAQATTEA
Chain of Carbonic anhydrase 7 (P43166 whole entry): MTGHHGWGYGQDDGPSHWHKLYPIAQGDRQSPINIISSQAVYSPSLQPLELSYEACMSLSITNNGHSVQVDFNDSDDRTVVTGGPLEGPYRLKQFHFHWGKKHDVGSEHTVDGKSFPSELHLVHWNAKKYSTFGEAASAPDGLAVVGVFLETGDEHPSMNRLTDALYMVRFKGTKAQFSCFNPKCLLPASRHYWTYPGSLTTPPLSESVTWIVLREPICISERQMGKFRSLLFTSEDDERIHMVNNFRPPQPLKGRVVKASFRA
Chain of Carbonic anhydrase 6 (P23280 whole entry): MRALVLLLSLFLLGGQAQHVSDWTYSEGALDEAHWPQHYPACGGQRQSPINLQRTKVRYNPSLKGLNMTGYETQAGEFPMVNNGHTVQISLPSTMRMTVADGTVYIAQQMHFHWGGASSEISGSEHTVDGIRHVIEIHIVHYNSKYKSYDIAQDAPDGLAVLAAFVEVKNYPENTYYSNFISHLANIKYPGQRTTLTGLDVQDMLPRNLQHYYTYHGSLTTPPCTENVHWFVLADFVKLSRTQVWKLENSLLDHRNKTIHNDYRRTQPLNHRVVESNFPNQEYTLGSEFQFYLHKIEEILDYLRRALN

Structure (SMILES)	Ki [1] [nM]	Ki [2] [nM]	Ki [3] [nM]	Ki [4] [nM]	Ki [5] [nM]	Ki [6] [nM]	Ki [7] [nM]	Ki [8] [nM]	Ki [9] [nM]	Ki [10] [nM]	Ki [11] [nM]
NS(=O)(=O)c1nnc(NC(=O)[C@]23C[C@H]4C[C@H](C[C@H](C4)C2)C3)s1 [Investigational agent, 4]	0.5	0.9	850	310000							
NS(=O)(=O)c1ccc(N2CCCCS2(=O)=O)cc1 [Ospolot]				630000	95	1540	1450	91	81		
CC1(C)O[C@@H]2[C@@H](CC[C@@]3(COS(N)(=O)=O)OC(C)(C)O[C@@H]23)O1		3.8	250	780000	4900	1460	47	30	63	45	
NS(=O)(=O)c1nnc(NC(=O)N[C@]23C[C@H]4C[C@H](C[C@H](C4)C2)C3)s1 [Investigational agent, 5]	1.3	4.7	810	330000	30	15	39	45	135	31	13
